According to patent publication US20240108740A1, “THERAPEUTIC COMPOSITIONS INCLUDING SPN10 AND USES THEREOF” (Stealth BioTherapeutics Inc., priority 2022, published 2024):
Residues, ends and D or L forms follow the SMILES beside them.

Assays:
murine burn injury model = test: Example 48: skeletal muscle redox state after burn injury (nitroxide EPR); assay type: in vivo, mouse; settings: 6-hour time point; i.p. 30 minutes before and immediately after burn
Procedure: The redox state of the gastrocnemius muscle immediately below a local cutaneous burn (90° C. for 3 sec) will be evaluated by nitroxide EPR. It is anticipated that the redox state in the muscle will be compromised by burn injury, with the most dramatic effect at 6 hours post-burn.
Peptide conjugates (3 mg/kg), aromatic-cationic peptides (an equivalent molar dose of aromatic-cationic peptide based on the concentration of the aromatic-cationic peptide administered in the peptide conjugate treatment group), SPN10(s) (an equivalent molar dose of SPN10 based on the concentration of SPN10 administered in the peptide conjugate treatment group) or SPN10(s) in combination with aromatic-cationic peptides (e.g., an equivalent molar dose of SPN10 based on the concentration of SPN10 administered in the peptide conjugate treatment group and an equivalent molar dose of aromatic-cationic peptide based on the concentration of aromatic-cationic peptide administered in the peptide conjugate treatment group) will be administered i.p. 30 minutes before burn, and immediately after burn.

hind limb casted mice = test: Hind limb immobilization (casting) induced skeletal muscle atrophy; assay type: in vivo, mouse
Procedure: 2. […] Casted mice will receive an i.p. injection of saline vehicle (0.3 mL), peptide conjugate, aromatic-cationic peptide, SPN10, or SPN10 with aromatic-cationic peptides. A control group of untreated mice will be also used in this experiment.
Subjects will receive s.c. injections of saline vehicle (0.3 mL) or the peptide conjugate, aromatic-cationic peptide or SPN10 (alone or in combination with aromatic-cationic peptides) (1.5 mg/kg for the peptide conjugate and equivalent molar doses of aromatic-cationic peptide and/or SPN10 based on concentration of the aromatic-cationic peptide or SPN10 administered in the peptide conjugate group) administered once daily during the immobilization period.
Immobilization. Mice will be anesthetized with gaseous isoflurane (3% induction, 0.5-2.5%) maintenance). Anesthetized animals will be cast-immobilized bilaterally with the ankle joint in the plantar-flexed position to induce maximal atrophy of the soleus and plantaris muscle. Both hind limbs and the caudal fourth of the body will be encompassed by a plaster cast. A thin layer of padding will be placed underneath the cast in order to prevent abrasions. In addition, to prevent the animals from chewing on the cast, one strip of fiberglass material will be applied over the plaster. The mice will be monitored on a daily basis for chewed plaster, abrasions, venous occlusion, and problems with ambulation.
Preparation of permeabilized muscle fibers. Permeabilized muscle fibers will be prepared as previously described. Korshunov, et al., FEBS Lett 416:15-18, 1997; Tonkonogi, et al., Pfliigers Arch 446:261-269, 2003. Briefly, the muscle will be trimmed of connective tissue and cut down to fiber bundles (4-8 mg wet wt). Under a microscope and using a pair of extra-sharp forceps, the muscle fibers will be gently separated in ice-cold buffer X containing 60 mM K-MES, 35 mM KCl, 7.23 mM K2EGTA, 2.77 mM CaK2EGTA, 20 mM imidazole, 0.5 mM DTT, 20 mM taurine, 5.7 mM ATP, 15 mM PCr, and 6.56 mM MgCl2·6 H2O (pH 7.1, 295 mosmol/kg H2O) to maximize surface area of the fiber bundle. To permeabilize the myofibers, each fiber bundle will be incubated in ice-cold buffer X containing 50 μg/mL saponin on a rotator for 30 minutes at 4° C. The permeabilized bundles will be washed in ice-cold buffer Z, containing 110 mM K-MES, 35 mM KCl, 1 mM EGTA, 5 mM K2HPO4, and 3 mM MgCl2, 0.005 mM glutamate, and 0.02 mM malate and 0.5 mg/mL BSA, pH 7.1.
Mitochondrial respiration in permeabilized fibers. Respiration will be measured polarographically in a respiration chamber maintained at 37° C. (Hansatech Instruments, United Kingdom). After the respiration chamber will be calibrated, permeabilized fiber bundles will be incubated with 1 mL of respiration buffer Z containing 20 mM creatine to saturate creatine kinase (Saks, et al., Mol. Cell Biochem. 184:81-100, 1998; Walsh, et al., J. Physiol. 537:971-978,2001). Flux through complex I will be measured using 5 mM pyruvate and 2 mM malate. The maximal respiration (state 3), defined as the rate of respiration in the presence of ADP, will be initiated by adding 0.25 mM ADP to the respiration chamber. Basal respiration (state 4) will be determined in the presence of 10 µg/mL oligomycin to inhibit ATP synthesis. The respiratory control ratio (RCR) will be calculated by dividing state 3 by state 4 respiration.
Mitochondrial ROS production. Mitochondrial ROS production will be determined using Amplex™ Red (Molecular Probes, Eugene, OR, U.S.A.). The assay will be performed at 37° C. in 96-well plates using succinate as the substrate. Superoxide dismutase (SOD) will be added at 40 units/mL to convert all superoxide into H2O2. Resorufin formation (Amplex™ Red oxidation by H2O2) will be monitored at an excitation wavelength of 545 nm and an emission wavelength of 590 nm using a multi-well plate reader fluorometer (SpectraMax, Molecular Devices, Sunnyvale, CA, U.S.A.). […]

N2A cells = test: Example 26: mitochondrial membrane potential and ROS accumulation after t-BHP (TMRM, DCF); assay type: cell-based; settings: 0.1 mM t-BHP, 6 hours
Procedure: N2A cells cultured in a glass dish will be treated with 0.1 mM t-BHP alone or in the presence of peptide conjugates (1 nM); aromatic-cationic peptides (an equivalent molar dose of aromatic-cationic peptide based on the concentration of the aromatic-cationic peptide administered in the peptide conjugate treatment group); SPN10(s) (an equivalent molar dose of SPN10 based on the concentration of SPN10 administered in the peptide conjugate treatment group) or SPN10(s) in combination with aromatic-cationic peptides (e.g., an equivalent molar dose of SPN10 based on the concentration of SPN10 administered in the peptide conjugate treatment group and an equivalent molar dose of aromatic-cationic peptide based on the concentration of aromatic-cationic peptide administered in the peptide conjugate treatment group) for 6 hours. Cells will then be loaded with 10 μM dichlorofluorescin (DCF) (ex/em=485/530) for 30 minutes at 37° C., 5% CO2. Cells will be washed 3 times with HBSS, stained with 20 nM of Mitotracker TMRM (ex/em=550/575 nm) for 15 minutes at 37° C., and examined by confocal laser scanning microscopy.

[1] = system: Ang II-induced hypertensive cardiomyopathy; test: Ang II (4 weeks) induced cardiac NADPH oxidase, p38 MAPK and apoptosis; assay type: in vivo
Source text: It is anticipated that SPN10(s) (with or without aromatic-cationic peptides) or peptide conjugates act downstream of NADPH oxidase and will reduce activation of p38 MAPK and apoptosis in response to Ang II. […] Mitochondrial ROS, either directly, or indirectly by activating apoptosis signal regulating kinase, may induce apoptosis. It is anticipated that Ang II will induce cardiac apoptosis, which will be shown through an increase in cleaved caspase-3.

In the case of `N=C(N)NCCC[C@H](NC(=O)[C@@H](N)Cc1c[nH]c2ccccc12)C(=O)N[C@@H](Cc1c[nH]c2ccccc12)C(=O)N[C@@H](CCCCN)C(N)=O` [SPN10, H-L-Trp-L-Arg-L-Trp-L-Lys-NH2] (H-WRWK-NH2), the “rate of nitroxide reduction in muscle beneath the burn” value (murine burn injury model) is reported as “significantly increase the rate of nitroxide reduction”, the “oxidative damage in soleus muscle, lipid peroxidation via 4-hydroxynonenal (4-HNE)” value (hind limb casted mice; casting) is reported as “overcome” and the “protease activity in the soleus muscle” value (hind limb casted mice; casting) is reported as “attenuated or prevented”. The “increase in H2O2 production by mitochondria isolated from soleus muscle” value (hind limb casted mice; casting for 7 days) was “prevented”, the “decrease in soleus muscle weight and mitochondrial state 3 respiration” value (hind limb casted mice; hind limb casting for 7 days) was “reversed” and the “calpain-1, caspase-3 and caspase-12 proteolytic degradation of muscle” value (hind limb casted mice; mouse, in vivo) was “prevented”. The “oxidative damage and associated muscle weakness induced by hind limb immobilization” value (hind limb casted mice; mouse, in vivo) was “prevent”, the “ROS accumulation (DCF)” value (N2A cells) was “reduce ROS accumulation” and the “mitochondrial depolarization (TMRM)” value (N2A cells) was “prevent mitochondrial depolarization”. For the same compound, the “Ang II-increased cardiac NADPH oxidase activity” value ([1]; 4 weeks of Ang II) was “not be changed”, the “activation of caspase-3 caused by Ang II (cleaved caspase-3)” value ([1]; Ang II) was “completely prevent” and the “phosphorylation of p38 MAPK” value ([1]; Ang II for 4 weeks) was “significantly and nearly fully attenuated”.
